Test results: patent US20240368106A1, “HYDROXY AND ALKOXY COUMARINS AS MODULATORS OF POLRMT” (Pretzel Therapeutics, Inc., priority 2021, published 2024)

target: POLRMT (Homo sapiens (Human), UniProt O00411); experiment: homogeneous TR-FRET assay of mitochondrial transcription (inhibition of POLRMT); type: biochemical; settings: 7.5 nM POLRMT, 15 nM TFB2M, 30 nM TFAM, 0.5 nM DNA template, 500 μM NTPs, 37° C., 60 minutes
Outline: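 Human POLRMT (7.5 nM) with TFB2M (15 nM), TFAM (30 nM), 0.5 nM linearized LSP plasmid template and 500 μM NTPs in pH 7.5 Tris/MgCl2 buffer, 60 min at 37 °C. Stopped with EDTA/high-salt; 407 bp transcript detected by hybridized Europium/ATTO647N probes. 665/620 nm ratio gives activity.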

Sequence of POLRMT (O00411 42-1230): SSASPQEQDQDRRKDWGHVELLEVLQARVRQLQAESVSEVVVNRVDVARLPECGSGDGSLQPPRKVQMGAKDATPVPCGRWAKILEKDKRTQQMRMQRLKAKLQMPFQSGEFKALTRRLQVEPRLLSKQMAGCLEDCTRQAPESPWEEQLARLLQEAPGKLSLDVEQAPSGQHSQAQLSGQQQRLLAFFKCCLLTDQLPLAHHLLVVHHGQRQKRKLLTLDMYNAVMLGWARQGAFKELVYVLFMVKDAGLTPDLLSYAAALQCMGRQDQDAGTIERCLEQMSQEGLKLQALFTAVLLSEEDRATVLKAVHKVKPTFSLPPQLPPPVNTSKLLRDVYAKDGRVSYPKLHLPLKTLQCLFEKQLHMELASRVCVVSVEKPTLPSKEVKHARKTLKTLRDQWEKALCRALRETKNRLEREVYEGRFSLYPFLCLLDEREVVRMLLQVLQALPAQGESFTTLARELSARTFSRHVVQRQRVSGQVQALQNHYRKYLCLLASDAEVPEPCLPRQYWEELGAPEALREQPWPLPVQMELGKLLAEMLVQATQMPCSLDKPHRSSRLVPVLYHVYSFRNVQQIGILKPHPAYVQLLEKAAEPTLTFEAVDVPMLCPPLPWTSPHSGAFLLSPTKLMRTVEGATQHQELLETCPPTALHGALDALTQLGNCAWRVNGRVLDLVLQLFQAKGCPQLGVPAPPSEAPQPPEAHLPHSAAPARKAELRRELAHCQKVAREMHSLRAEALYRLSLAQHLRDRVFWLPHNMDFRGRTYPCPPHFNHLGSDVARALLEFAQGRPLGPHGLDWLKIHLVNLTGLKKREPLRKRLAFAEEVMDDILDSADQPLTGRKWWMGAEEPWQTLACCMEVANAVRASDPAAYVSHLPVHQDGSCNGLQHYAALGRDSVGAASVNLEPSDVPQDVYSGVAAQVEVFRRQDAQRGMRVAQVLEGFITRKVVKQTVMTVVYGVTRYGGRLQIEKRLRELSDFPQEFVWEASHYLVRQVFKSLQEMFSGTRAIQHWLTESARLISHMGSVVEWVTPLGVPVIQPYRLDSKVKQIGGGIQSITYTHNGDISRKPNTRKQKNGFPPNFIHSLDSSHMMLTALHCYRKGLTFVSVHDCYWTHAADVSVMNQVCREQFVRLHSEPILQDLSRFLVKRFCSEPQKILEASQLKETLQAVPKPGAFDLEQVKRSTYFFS

Compound	IC50 [nM]
Cc1ccccc1-c1cc(=O)oc2cc(OC3CCCOC3)ccc12 (single isomer, unassigned) [Example 49, 7-((tetrahydro-2H-pyran-3-yl)oxy)-4-(o-tolyl)-2H-chromen-2-one]	1000
CCCOc1ccc2c(-c3cccc4c3OCCO4)cc(=O)oc2c1 [Example 36, 4-(2,3-dihydrobenzo[b][1,4]dioxin-5-yl)-7-propoxy-2H-chromen-2-one]	50000
COCC(Oc1ccc2c(-c3ccc(F)cc3Cl)cc(=O)oc2c1)C(=O)OC (stereo not drawn) [Example 14, methyl 2-((4-(2-chloro-4-fluorophenyl)-2-oxo-2H-chromen-7-yl)oxy)-3-methoxypropanoate]	200
Cc1ccccc1-c1cc(=O)oc2cc(OC(C)C)cc(C)c12 [Example 58, 7-isopropoxy-5-methyl-4-(o-tolyl)-2H-chromen-2-one]	400

More lines, in order of falling IC50, values ahead:

IC50 [nM]	Compound
10000	COCC(Oc1ccc2c(-c3ccccc3C)cc(=O)oc2c1)C(=O)N1CCC1 (single isomer, unassigned) [Example 90, 7-((1-(azetidin-1-yl)-3-methoxy-1-oxopropan-2-yl)oxy)-4-(o-tolyl)-2H-chromen-2-one]
100	COC[C@@H](Oc1ccc2c(-c3ccccc3C)cc(=O)oc2c1)C(=O)N(C)C [Example 71, (R)-3-methoxy-N,N-dimethyl-2-((2-oxo-4-(o-tolyl)-2H-chromen-7-yl)oxy)propenamide]
